# According to article PMC8207662, “Divergent camptothecin biosynthetic pathway in Ophiorrhiza pumila” (BMC Biology, 2021):
# Where a chain is given by its changes, count along the chain named.
# B1: OpSTR (Ophiorrhiza pumila) (protein)
# chain: SPEFFEFIEAPSYGPNAYAFDSDGELYASVEDGRIIKYDKPSNKFLTHAVASPIWNNALCENNTNQDLKPLCGRVYDFGFHYETQRLYIADCYFGLGFVGPDGGHAIQLATSGDGVEFKWLYALAIDQQAGFVYVTDVSTKYDDRGVQDIIRINDTTGRLIKYDPSTEEVTVLMKGLNIPGGTEVSKDGSFVLVGEFASHRILKYWLKGPKANTSEFLLKVRGPGNIKRTKDGDFWVASSDNNGITVTPRGIRFDEFGNILEVVAIPLPYKGEHIEQVQEHDGALFVGSLFHEFVGILHNYKSSVDHHQEKNSGGLNASFKEFSSF
# notes: recombinant from pET30a in E. coli BL21(DE3), Ni resin purified
# How the values were obtained:
# OpLAMT [1] = target: T1, OpLAMT (Ophiorrhiza pumila, UniProt A0A8F2YIU9); test: HPLC assay, loganin formation; assay type: biochemical; settings: 1 mM SAM; pH 7.5; 30 °C
# T1 construct: gene LAMT; recombinant from pET-30a in E. coli BL21(DE3), Ni resin purified
# T1 sequence (A0A8F2YIU9 1-381): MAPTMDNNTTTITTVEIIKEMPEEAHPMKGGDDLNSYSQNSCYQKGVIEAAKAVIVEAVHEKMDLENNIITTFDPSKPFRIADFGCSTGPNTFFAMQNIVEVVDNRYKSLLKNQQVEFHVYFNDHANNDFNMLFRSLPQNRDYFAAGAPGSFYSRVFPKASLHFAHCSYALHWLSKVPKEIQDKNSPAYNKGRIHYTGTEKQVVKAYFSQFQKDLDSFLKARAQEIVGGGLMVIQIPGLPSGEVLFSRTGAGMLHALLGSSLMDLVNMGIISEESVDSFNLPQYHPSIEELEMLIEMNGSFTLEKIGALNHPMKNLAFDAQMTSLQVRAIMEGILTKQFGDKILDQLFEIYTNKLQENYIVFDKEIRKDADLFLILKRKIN
# OpSLS4 = target: T2, OpSLS4 (Ophiorrhiza pumila, UniProt A0A8F3BRW9); test: yeast microsome assay, HPLC of secologanin; assay type: biochemical; settings: 1 mM NADPH; 30 °C
# T2 construct: gene SLS4; expressed from pESC-Leu in yeast WAT11, microsomes
# OpSLS6 = target: T3, OpSLS6 (Ophiorrhiza pumila, UniProt A0A8F3BQ54); test: yeast microsome assay, HPLC of secologanin; assay type: biochemical; settings: 1 mM NADPH; 30 °C
# T3 construct: gene SLS6; expressed from pESC-Leu in yeast WAT11, microsomes
# T3 sequence (A0A8F3BQ54 1-516): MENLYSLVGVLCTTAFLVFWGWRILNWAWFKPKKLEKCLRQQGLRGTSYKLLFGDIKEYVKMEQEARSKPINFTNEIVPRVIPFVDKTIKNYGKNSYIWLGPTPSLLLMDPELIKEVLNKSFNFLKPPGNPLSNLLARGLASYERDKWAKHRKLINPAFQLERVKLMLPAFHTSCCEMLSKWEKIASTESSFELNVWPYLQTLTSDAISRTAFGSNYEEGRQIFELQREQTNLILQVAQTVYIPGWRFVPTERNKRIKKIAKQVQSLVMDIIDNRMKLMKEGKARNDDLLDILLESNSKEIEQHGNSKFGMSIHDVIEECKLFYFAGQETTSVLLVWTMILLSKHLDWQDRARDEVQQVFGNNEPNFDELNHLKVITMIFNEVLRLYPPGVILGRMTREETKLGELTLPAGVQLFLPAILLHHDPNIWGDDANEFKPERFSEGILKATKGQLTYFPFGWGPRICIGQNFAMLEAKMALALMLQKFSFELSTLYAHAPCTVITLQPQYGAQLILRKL
# OpSLS1 = target: T4, OpSLS1 (Ophiorrhiza pumila, UniProt A0A8F2YIW0); test: yeast microsome assay, HPLC of secologanin; assay type: biochemical; settings: 1 mM NADPH; 30 °C
# T4 construct: gene SLS1; expressed from pESC-Leu in yeast WAT11, microsomes
# T4 sequence (A0A8F2YIW0 1-522): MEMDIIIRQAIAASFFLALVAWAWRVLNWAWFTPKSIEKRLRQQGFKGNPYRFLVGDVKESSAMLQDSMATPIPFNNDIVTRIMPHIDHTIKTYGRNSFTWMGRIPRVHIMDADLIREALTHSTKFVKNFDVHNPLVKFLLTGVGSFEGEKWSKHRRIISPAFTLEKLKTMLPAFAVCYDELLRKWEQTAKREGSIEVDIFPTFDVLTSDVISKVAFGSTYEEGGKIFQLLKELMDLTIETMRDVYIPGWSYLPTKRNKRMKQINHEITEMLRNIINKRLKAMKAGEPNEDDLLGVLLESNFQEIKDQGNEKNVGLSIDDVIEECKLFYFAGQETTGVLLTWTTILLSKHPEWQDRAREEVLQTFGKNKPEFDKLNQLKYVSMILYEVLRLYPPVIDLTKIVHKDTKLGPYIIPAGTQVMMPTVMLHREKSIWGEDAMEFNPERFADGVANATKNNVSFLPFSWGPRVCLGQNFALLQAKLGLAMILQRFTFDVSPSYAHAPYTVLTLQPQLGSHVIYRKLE
# OpSLS5 = target: T5, OpSLS5 (Ophiorrhiza pumila, UniProt A0A8F3BPP9); test: yeast microsome assay, HPLC of secologanin; assay type: biochemical; settings: 1 mM NADPH; 30 °C
# T5 construct: gene SLS5; expressed from pESC-Leu in yeast WAT11, microsomes
# T5 sequence (A0A8F3BPP9 1-521): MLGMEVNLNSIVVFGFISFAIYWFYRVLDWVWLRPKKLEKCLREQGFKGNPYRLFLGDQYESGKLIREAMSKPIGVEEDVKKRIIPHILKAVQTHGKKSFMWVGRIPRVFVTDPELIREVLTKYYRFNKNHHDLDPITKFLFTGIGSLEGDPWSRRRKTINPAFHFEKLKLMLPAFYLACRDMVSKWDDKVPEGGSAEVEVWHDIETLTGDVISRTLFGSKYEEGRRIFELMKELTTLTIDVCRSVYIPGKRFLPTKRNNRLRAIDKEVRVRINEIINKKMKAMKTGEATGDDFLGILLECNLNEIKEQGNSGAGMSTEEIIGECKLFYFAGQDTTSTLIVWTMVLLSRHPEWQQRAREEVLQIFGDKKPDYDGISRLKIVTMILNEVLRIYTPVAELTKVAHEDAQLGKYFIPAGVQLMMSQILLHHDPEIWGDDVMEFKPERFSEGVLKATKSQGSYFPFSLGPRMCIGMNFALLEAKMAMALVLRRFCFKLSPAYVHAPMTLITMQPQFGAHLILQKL
# OpSLS3 = target: T6, OpSLS3 (Ophiorrhiza pumila, UniProt A0A8F3BRG6); test: yeast microsome assay, HPLC of secologanin; assay type: biochemical; settings: 1 mM NADPH; 30 °C
# T6 construct: gene SLS3; expressed from pESC-Leu in yeast WAT11, microsomes
# T6 sequence (A0A8F3BRG6 1-521): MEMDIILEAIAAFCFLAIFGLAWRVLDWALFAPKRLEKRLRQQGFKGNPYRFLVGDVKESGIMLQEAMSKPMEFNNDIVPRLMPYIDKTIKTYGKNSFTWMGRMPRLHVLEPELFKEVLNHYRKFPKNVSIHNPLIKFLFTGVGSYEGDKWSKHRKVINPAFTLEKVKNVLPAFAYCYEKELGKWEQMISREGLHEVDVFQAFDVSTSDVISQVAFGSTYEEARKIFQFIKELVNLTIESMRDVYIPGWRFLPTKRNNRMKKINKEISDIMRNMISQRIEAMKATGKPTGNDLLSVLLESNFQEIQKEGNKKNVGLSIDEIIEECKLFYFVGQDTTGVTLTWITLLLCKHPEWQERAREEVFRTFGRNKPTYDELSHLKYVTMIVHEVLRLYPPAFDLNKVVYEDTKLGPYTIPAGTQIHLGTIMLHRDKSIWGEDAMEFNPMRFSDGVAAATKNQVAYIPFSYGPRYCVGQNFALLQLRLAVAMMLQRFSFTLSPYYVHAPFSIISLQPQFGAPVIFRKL
# OpLAMT [2] = target: T1, OpLAMT; test: assay of secologanin formation, printed as microsome assay with recombinant OpLAMT; assay type: biochemical; settings: SAM
# CaSTR2 [3] = target: T7, CaSTR2 (Camptotheca acuminata, UniProt A0A8F2YJ04); test: LC-MS of strictosidinic acid formation; assay type: biochemical; settings: tryptamine co-substrate
# T7 construct: gene STR2; recombinant from pET30a in E. coli BL21(DE3), Ni resin purified
# T7 sequence (A0A8F2YJ04 32-329): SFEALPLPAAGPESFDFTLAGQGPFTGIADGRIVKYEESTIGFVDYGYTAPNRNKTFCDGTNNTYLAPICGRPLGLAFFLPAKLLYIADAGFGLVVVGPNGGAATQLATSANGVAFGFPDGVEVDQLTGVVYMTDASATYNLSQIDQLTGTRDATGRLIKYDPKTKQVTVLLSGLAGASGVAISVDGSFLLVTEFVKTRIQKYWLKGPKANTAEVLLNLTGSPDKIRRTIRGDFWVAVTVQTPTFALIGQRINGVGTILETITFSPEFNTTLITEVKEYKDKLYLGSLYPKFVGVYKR
# CaSTR1 = target: T8, CaSTR1 (Camptotheca acuminata, UniProt A0A8F2YIY3); test: LC-MS of strictosidine formation; assay type: biochemical; settings: tryptamine co-substrate
# T8 construct: gene STR1; recombinant from pET30a in E. coli BL21(DE3), Ni resin purified
# T8 sequence (A0A8F2YIY3 73-370): T7 sequence (A0A8F2YJ04 32-329) with S39P, L66S, G91S, V185A, V238I, V240I, Y279H
# CaSTR2 [4] = target: T7, CaSTR2; test: LC-MS of strictosidine formation; assay type: biochemical; settings: tryptamine co-substrate
# CaSTR3 = target: T9, CaSTR3 (Camptotheca acuminata, UniProt A0A8F2YIV8); test: LC-MS of strictosidine formation; assay type: biochemical; settings: tryptamine co-substrate
# T9 construct: gene STR3; recombinant from pET30a in E. coli BL21(DE3), Ni resin purified
# T9 sequence (A0A8F2YIV8 31-330): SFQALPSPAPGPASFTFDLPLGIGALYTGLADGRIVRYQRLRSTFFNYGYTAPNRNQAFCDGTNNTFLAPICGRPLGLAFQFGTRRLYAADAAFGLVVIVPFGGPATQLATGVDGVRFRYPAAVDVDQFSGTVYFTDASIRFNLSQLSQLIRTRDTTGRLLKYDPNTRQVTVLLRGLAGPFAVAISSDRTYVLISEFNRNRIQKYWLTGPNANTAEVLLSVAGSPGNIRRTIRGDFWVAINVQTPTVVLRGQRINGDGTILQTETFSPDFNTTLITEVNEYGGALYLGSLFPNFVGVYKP
# [5] = substrate: C=C[C@H]1[C@H](O[C@@H]2O[C@H](CO)[C@@H](O)[C@H](O)[C@H]2O)OC=C(C(=O)OC)[C@H]1CC=O; test: LC-MS of strictosidine formation; assay type: biochemical, Ophiorrhiza pumila; settings: tryptamine co-substrate
# Description: LC-MS of strictosidine formation on OpSTR | we furtherly characterized the kinetic parameters of OpSTR using LCMS
# T2 sequence (A0A8F3BRW9 1-517): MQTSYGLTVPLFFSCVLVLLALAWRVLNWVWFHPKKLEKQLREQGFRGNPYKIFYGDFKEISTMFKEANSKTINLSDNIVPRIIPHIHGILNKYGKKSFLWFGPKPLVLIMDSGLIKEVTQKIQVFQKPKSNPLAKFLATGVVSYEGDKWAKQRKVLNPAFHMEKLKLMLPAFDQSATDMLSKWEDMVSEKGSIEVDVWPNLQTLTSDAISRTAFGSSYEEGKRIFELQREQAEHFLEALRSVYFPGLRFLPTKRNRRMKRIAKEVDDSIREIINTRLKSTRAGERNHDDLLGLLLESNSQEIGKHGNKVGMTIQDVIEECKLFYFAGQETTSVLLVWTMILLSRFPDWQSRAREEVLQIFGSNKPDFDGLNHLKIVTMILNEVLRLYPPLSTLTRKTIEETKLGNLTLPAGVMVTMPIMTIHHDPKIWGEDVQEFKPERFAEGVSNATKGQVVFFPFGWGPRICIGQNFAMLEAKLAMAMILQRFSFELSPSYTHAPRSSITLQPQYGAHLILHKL
molecule,measurement,setting,value
C[C@@H]1[C@H]2[C@H](O[C@@H]3O[C@H](CO)[C@@H](O)[C@H](O)[C@H]3O)OC=C(C(=O)O)[C@H]2C[C@@H]1O [loganic acid],"HPLC assay, loganin formation",OpLAMT [1],The purified recombinant protein converted loganic acid and S-adenosyl methionine (SAM) into loganin
COC(=O)C1=CO[C@@H](O[C@@H]2O[C@H](CO)[C@@H](O)[C@H](O)[C@H]2O)[C@@H]2[C@@H](C)[C@@H](O)C[C@H]12 [loganin],"yeast microsome assay, HPLC of secologanin",OpSLS4,"five OpSLS proteins (OpSLS1, OpSLS3, OpSLS4, OpSLS5, OpSLS6) exhibited secologanin synthase activity"
same,"yeast microsome assay, HPLC of secologanin",OpSLS6,"five OpSLS proteins (OpSLS1, OpSLS3, OpSLS4, OpSLS5, OpSLS6) exhibited secologanin synthase activity"
same,"yeast microsome assay, HPLC of secologanin",OpSLS1,"five OpSLS proteins (OpSLS1, OpSLS3, OpSLS4, OpSLS5, OpSLS6) exhibited secologanin synthase activity"
same,"yeast microsome assay, HPLC of secologanin",OpSLS5,"five OpSLS proteins (OpSLS1, OpSLS3, OpSLS4, OpSLS5, OpSLS6) exhibited secologanin synthase activity"
same,"yeast microsome assay, HPLC of secologanin",OpSLS3,"five OpSLS proteins (OpSLS1, OpSLS3, OpSLS4, OpSLS5, OpSLS6) exhibited secologanin synthase activity"
C=C[C@@H]1C(CC=O)C(C(=O)O)=CO[C@H]1O[C@@H]1O[C@H](CO)[C@@H](O)[C@H](O)[C@H]1O (stereo partly drawn) [secologanic acid],"assay of secologanin formation, printed as microsome assay with recombinant OpLA",OpLAMT [2],a microsome assay with secologanic acid as a substrate for recombinant OpLAMT revealed methylation
same,LC-MS of strictosidinic acid formation,CaSTR2 [3],OpSTR and CaSTR2 used both secologanin and secologanic acid activity as their substrates
C=C[C@H]1[C@H](O[C@@H]2O[C@H](CO)[C@@H](O)[C@H](O)[C@H]2O)OC=C(C(=O)OC)[C@H]1CC=O [secologanin],LC-MS of strictosidine formation,CaSTR1,"NnSTR, CaSTR1, and CaSTR3 displayed substrate specificity towards secologanin only"
same,LC-MS of strictosidine formation,CaSTR2 [4],OpSTR and CaSTR2 used both secologanin and secologanic acid activity as their substrates
same,LC-MS of strictosidine formation,CaSTR3,"NnSTR, CaSTR1, and CaSTR3 displayed substrate specificity towards secologanin only"
B1,Km,[5],382 ± 68.1 µM
same,Vmax,[5],0.0377 µmol/min/mg
same,kcat,[5],0.0524 s⁻¹
same,kcat/Km,[5],137 M⁻¹ s⁻¹
